Test results reported in PubChem BioAssay (NCI).
Where “and” joins values, the source holds several entries; their conditions need not be identical. Equal values may be shown once.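 Assay format: 96-well plates, 48-hour exposure. Abbreviation: GI50, concentration required for 50% inhibition of growth. TGI: total growth inhibition.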

What was measured:
Test in all cases: DTP human tumour cell line panel, 48 h
HL-60(TB) leukemia = tested on: HL-60(TB) leukemia
CAKI-1 renal = tested on: CAKI-1 renal
T-47D breast = tested on: T-47D breast
ACHN renal = tested on: ACHN renal
SK-MEL-2 melanoma = tested on: SK-MEL-2 melanoma
SK-OV-3 ovarian = tested on: SK-OV-3 ovarian
RXF 393 renal = tested on: RXF 393 renal
SK-MEL-28 melanoma = tested on: SK-MEL-28 melanoma

| SMILES | GI50 (HL-60(TB) leukemia) [µM] | TGI (HL-60(TB) leukemia) [µM] | GI50 (CAKI-1 renal) [µM] | TGI (CAKI-1 renal) [µM] | GI50 (T-47D breast) [µM] | TGI (T-47D breast) [µM] | GI50 (ACHN renal) [µM] | TGI (ACHN renal) [µM] | GI50 (SK-MEL-2 melanoma) [µM] | TGI (SK-MEL-2 melanoma) [µM] | GI50 (SK-OV-3 ovarian) [µM] | TGI (SK-OV-3 ovarian) [µM] | GI50 (RXF 393 renal) | TGI (RXF 393 renal) [µM] | GI50 (SK-MEL-28 melanoma) [µM] | TGI (SK-MEL-28 melanoma) [µM] |
| --- | --- | --- | --- | --- | --- | --- | --- | --- | --- | --- | --- | --- | --- | --- | --- | --- |
| Cc1cc(I)cc(CN(C)CCCN2CCN(C)CC2)c1O | 27.1 | > 57.9 | 20.3 | 47.3 | 28.7 | 91.1 | 81.6 | > 100 | 22.3 | 46.1 | 65.7 | > 100 | 21.7 µM | > 81.2 | 17.2 | 33 |
| CC#Cc1nc(Nc2cc(C)[nH]n2)c2ccccc2n1 |  |  | 2.32 | 13.8 | 10.8 | 56.5 | 2.74 | 14.1 | 2.92 | 8.38 | 5.19 | 61.3 | 7.57 µM and 1.67 µM | 4.96 | 7.76 | > 100 |
| O=C(CCc1ccc(O)cc1)N/N=C/c1cc(Br)ccc1O | 2.5 | 9.66 | 1.95 | 8.99 | 3.74 | 41.6 | 3.33 | > 100 | 5.28 | 38.3 | 6.35 | > 100 | 6.51 µM | > 100 | 5.72 | > 100 |
| O=C1C(Cl)=C(Nc2cccc(O)c2)C(=O)N1Cc1ccc(Cl)cc1Cl |  |  | 13.4 | 26.7 | 19.1 | > 100 | 5.59 | 17.7 | 1.25 | 11.1 | 9.43 | 23.7 | 1.06 µM | 11.1 | 3.89 | 18.3 |
| COc1cccc2c1n([O-])c1cccc(OC)c1[n+]2=O | 3.23 | 9.12 | 3.97 | 76.5 | 2.39 | 10.3 | 4.35 | > 100 | 17.8 | > 100 | 10.5 | 28.9 | 19.3 µM | > 100 |  |  |
| Cc1ccc(Sc2cc3c(oc2=O)-c2ccccc2OC3O)cc1 (stereo unspecified) | 16.6 | 37.1 | 32 | 78.1 | 24.8 | 81.2 | 24.8 | 57.3 | 22.1 | 47.7 |  |  | 26.8 µM | 62.2 | 22.2 | 57.9 |
| Cc1cc(Nc2cc(N)ncn2)c(=O)n2c1C(=O)NC21CCCCC1 | > 100 | > 100 |  |  | > 100 | > 100 | 25.3 | > 100 | 58.2 | > 100 | 62 | > 100 | 37.7 µM | > 100 | > 100 | > 100 |
| O=C1C(Cl)=C(Nc2cccc(C(F)(F)F)c2)C(=O)N1Cc1ccc(Cl)cc1 | 1.7 | > 100 | 0.289 | 16.4 | 2.11 | 30.8 | 0.421 | 15.1 | 4.02 | > 25.9 | 3.78 | 20.8 |  |  | 3.95 | 23.6 |
| COc1cc(NC(=O)C2=C(N3CCOCC3)/C(=C/c3ccc(Cl)cc3)CC2)cc(OC)c1OC | > 100 | > 100 | 23 | > 100 | > 100 | > 100 | 16.9 | 61.8 | 66.8 | > 100 | 21.7 | 62.8 |  |  | > 100 | > 100 |
| CC(=O)N/C(=C\c1ccc(Cc2nc3c([nH]2)C(=O)c2ccccc2C3=O)cc1)c1nc2c([nH]1)C(=O)c1ccccc1C2=O |  | > 100 |  | > 100 |  |  |  | > 100 |  | > 100 |  | > 100 |  | > 100 |  | > 100 |
| Oc1ccc(N=Nc2ccccn2)c(O)c1 | 0.412 | 8.75 |  |  | 2.05 | > 100 | 0.507 | > 100 | 7.44 | > 100 | 1.23 | > 100 | 1.19 µM | 33.6 | 1.66 | > 100 |
